The target of this assay is Glucose-6-phosphate 1-dehydrogenase (Homo sapiens) (UniProt P11413). Kind of assay: human G6PD enzyme inhibitors, dose response, selectivity assay for P. falciparum G6PD inhibitor project, biochemical, fluorescence (AID 504792). To be noted: NADPH resazurin-diaphorase fluorescence.

Here are results for one compound from PubChem BioAssay AID504792 (Sanford-Burnham Center for Chemical Genomics, 2011).

Calls of active or inactive are those of the source.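 Rule for the calls: active = IC50 at or below 20 µM; inactive = the rest.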

Glucose-6-phosphate 1-dehydrogenase (Homo sapiens), sequence (P11413 whole entry, looked up): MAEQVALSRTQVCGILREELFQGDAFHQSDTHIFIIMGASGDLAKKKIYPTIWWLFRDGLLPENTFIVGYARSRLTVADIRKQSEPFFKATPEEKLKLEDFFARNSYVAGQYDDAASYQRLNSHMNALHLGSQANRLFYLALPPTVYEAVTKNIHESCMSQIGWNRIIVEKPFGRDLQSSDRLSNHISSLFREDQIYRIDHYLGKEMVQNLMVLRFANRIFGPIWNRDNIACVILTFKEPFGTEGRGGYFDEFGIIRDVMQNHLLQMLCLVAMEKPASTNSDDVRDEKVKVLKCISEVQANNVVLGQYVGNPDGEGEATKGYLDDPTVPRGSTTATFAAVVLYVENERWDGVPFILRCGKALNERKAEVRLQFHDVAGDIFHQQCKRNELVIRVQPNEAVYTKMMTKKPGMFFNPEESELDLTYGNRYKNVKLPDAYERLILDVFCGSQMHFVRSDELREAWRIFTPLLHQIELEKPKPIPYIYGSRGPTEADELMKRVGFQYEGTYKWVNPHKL

`C[c-]1[c-](C)[c-](C)[c-](C)[c-]1C.[Fe].c1cc2nccc(N3CCCC3)[c-]2c1` (stereo unspecified): the IC50 is > 80 µM (inactive).

As usually defined, the IC50 is the concentration that inhibits the measured activity by half.
